Data: article PMC12785453, “Oral Fluid Concentrations and Pharmacological Effects of Clephedrone and Methylone in Humans” (International Journal of Molecular Sciences, 2025)
Like-named read-outs stand apart in the source and are kept apart here.

Assays:
healthy volunteers = assay: Physiological effects (SBP, DBP, HR, T), naturalistic observational clephedrone study; format: in vivo, humans
Text: The study evaluating the acute effects of clephedrone was designed as a non-controlled, prospective, observational, and naturalistic study. The procedures and evaluations included in this study have been described in previous studies evaluating other synthetic cathinones (mephedrone, methylone, alpha-PVP, NEP, HEXEN), phenethylamines (2C-B and 2C-E), or synthetic cannabinoids (JWH-122, JWH-210, UR-144).
This study consisted of one experimental session in which participants (N = 8; 6 women, 2 men) selected their oral dose of clephedrone based on their drug use experience and preferences. According to their dose selection, 3 women and 1 man ingested 100 mg of clephedrone, while the remaining 3 women and 1 man opted for a higher dose of 150 mg. […] Participants were recruited by word of mouth by the harm reduction organization Energy Control in Barcelona (Associació Benestar i Desenvolupament, ABD).
Participants of the naturalistic clephedrone study were summoned at 15:00 h at the private club where sessions were carried out. The club remained closed to the public until the end of the session, approximately at 21:00 h. As a naturalistic study, participants were left free to talk, read, play games, or listen to music in the time between study evaluations. To avoid possible influences between participants, they were asked to refrain from talking about the effects of the self-administered substance. The experimental sessions of the controlled pilot trial were carried out at the Clinical Research Unit (UPIC) of the Germans Trias i Pujol hospital, where participants were summoned at 7:45 a.m. after fasting overnight and remained there for approximately 11 h.
In the naturalistic clephedrone study, non-invasive systolic blood pressure (SBP), diastolic blood pressure (DBP), and heart rate (HR) were assessed, while subjects remained seated with an automatic Omron monitor (Omron, Healthcare, Kyoto, Japan) at baseline, 0.50, 1, 1.5, 2, 3, 4 and 5 h (h) after self-administration. Forehead cutaneous temperature was determined at the same time points using a cutaneous infrared thermometer.
(§1) For statistical analysis, values of physiological (SBP, DBP, HR, and T) and subjective effects (VAS, ARCI, and VESSPA-SSE) were baseline–adjusted. Maximum effects (Emax) and the time needed to reach maximum effects (Tmax) were determined, and the area under the curve up to 5 h (AUC0–5h) for clephedrone and up to 6 h (AUC0–6h) for methylone was calculated using the trapezoidal rule. Emax and AUC values are presented as mean ± standard deviation, whereas Tmax is presented in median (range).
(§2) To find possible significant changes through the time course compared to baseline, a Dunnett multiple comparison test was carried out to compare each time point with baseline in both drug conditions. For clephedrone the comparisons were 0–0.5 h, 0–1 h, 0–1.5 h, 0–2 h, 0–3 h, 0–4 h and 0–5 h, and for methylone this analysis included 0–0.25 h, 0–0.5 h, 0–0.75 h, 0–1 h, 0–1.5 h, 0–2 h, 0–3 h, 0–4 h and 0–6 h. Given their different study designs, no comparative analysis between the time courses of both synthetic cathinones was conducted.

[1] = tested on: MDMA-like discriminative stimulus effects; design: method as in PMID 30986635; conditions: cited from earlier work
[2] = tested on: healthy male participants; assay: Subjective effects, VESSPA-SSE, methylone trial; format: in vivo, humans; conditions: 150 or 200 mg oral
Description: Methylone pharmacology was evaluated in a study designed as a randomized, double-blind, placebo-controlled, crossover clinical trial. Four pilot studies were conducted administering methylone at oral doses of 50 (n = 3), 100 (n = 6), 150 (n = 5), and 200 mg (n = 7). Participants attended 3 experimental sessions separated by a one-week wash-out period and received two doses of methylone (one dose per experimental session) compared to placebo, except in the last pilot study in which participants received one dose of methylone, compared to MDMA and placebo. However, in this manuscript, only the results corresponding to the highest methylone doses (n = 12; 150 and 200 mg; mean dose = 179.2 mg) are presented, to enable comparison with clephedrone self-administration. Participants were recruited by word of mouth in the volunteer database of the clinical pharmacology unit.
Methylone hydrochloride of high purity in powder form was acquired from LGC Standards (Teddington, UK) for the controlled study. The Pharmacy Department of the Hospital Universitari Germans Trias i Pujol was responsible for manufacturing, storing, and dispensing identical and opaque soft gelatin capsules containing 50 mg of methylone or a placebo (maltodextrin). Treatment consisted of 5 capsules that combined methylone and/or a placebo to reach the target dose. Details can be found in the previous article.
Subjective effects were evaluated with visual analog scales (VAS), the short form of the Addiction Research Center Inventory (ARCI), and the Evaluation of Subjective Effects of Substances with Abuse Potential questionnaire (VESSPA-SSE). In addition, the Sensitivity to Drug Reinforcement Questionnaire (SDRQ) and a pharmacological identification class questionnaire were used in the controlled study administering methylone.
The VESSPA-SSE questionnaire, used to evaluate the subjective effects of stimulant drugs, The questionnaire includes 36-items and consists of six subscales that measure sedation (S), psychosomatic anxiety (ANX), changes in perception (CP), pleasure and sociability (SOC), activity and energy (ACT), and psychotic symptoms (PS).
Participants included in the naturalistic clephedrone study completed VAS at baseline, 0.50, 1, 1.5, 2, 3, 4, and 5 h, and ARCI and VESSPA at baseline, 1, 2, 3, 4, and 5 h after self-administering clephedrone. In the controlled study, VAS was performed at baseline and 0.25, 0.50, 0.75, 1, 1.5, 2, 3, 4, 6, 8, 10, and 24 h, and ARCI and VESSPA at baseline and 1, 2, 3, 4, 6, 8, and 10 h after administering methylone. Participants completed SDRQ and VAS sexual desire and arousal at baseline, 1 and 10 h, and the pharmacological class identification questionnaire at 8 h.
as §1, §2

[3] = cited from earlier work
[4] = 100 or 150 mg oral, n=8, listed as clephedrone
[5] = AUC0–5h, 100 or 150 mg oral, n=8

In the case of `CNC(C)C(=O)c1ccc(Cl)cc1` (stereo not drawn) [Clephedrone, 4-chloromethcathinone], the “Onset of cardiovascular effects after self-administration” value (healthy volunteers; 100 or 150 mg oral) is reported as 2 h, the “Tmax of maximum effects on SBP, DBP and HR” value (healthy volunteers; 100 or 150 mg oral) is reported as 2.5 to 3.0 h and the “DBP Emax” value (healthy volunteers; 100 or 150 mg oral, n=8) is reported as 13.63 ± 11.74 mmHg. The “HR Emax” value (healthy volunteers; 100 or 150 mg oral, n=8) was 17.19 ± 25.17 bpm, the “SBP Emax” value (healthy volunteers; 100 or 150 mg oral, n=8) was 16.81 ± 13.11 mmHg and the “DBP Emax” value (healthy volunteers; [4]) was 13.6 mmHg. For the same molecule, the “HR Emax” value (healthy volunteers; [4]) was 17.19 bpm, the “HR Tmax” value (healthy volunteers; [4]) was 3 h and the “SBP Emax” value (healthy volunteers; [4]) was 16.81 mmHg. The “DBP AUC0-5/6 h” value (healthy volunteers; [5]) was 32.64 ± 22.06 mmHg·h, the “HR AUC0-5/6 h” value (healthy volunteers; [5]) was 37.20 ± 40.72 bpm·h and the “SBP AUC0-5/6 h” value (healthy volunteers; [5]) was 41.77 ± 13.86 mmHg·h. The “T AUC0-5/6 h” value (healthy volunteers; AUC0–5h, forehead cutaneous temperature, 100 or 150 mg oral, n=8) was 1.25 ± 1.05 °C·h, the “Tolerability, serious adverse events” value (healthy volunteers; all administered doses (100 or 150 mg oral)) was “well tolerated” and the “T Emax” value (healthy volunteers; forehead cutaneous temperature, 100 or 150 mg oral, n=8) was 0.63 ± 0.35 °C. The “Substitution for MDMA in drug discrimination” value ([1]; rodents) was “fully substituted for MDMA”.
With `CNC(C)C(=O)c1ccc2c(c1)OCO2` (stereo not drawn) [Methylone, 3,4-methylenedioxy-N-methylcathinone] the “Tmax of VESSPA subscales” value [2] was 1 h, the “VESSPA ANX (psychosomatic anxiety) Emax” value ([2]; n=12) was 0.92 ± 0.51 points and the “VESSPA CP (changes in perception) Emax” value ([2]; n=12) was 0.00 ± 0.00 points. The “VESSPA CP (changes in perception) Tmax” value ([2]; n=12) was 0.0 (0.0–0.0) h, the “VESSPA S (sedation) Emax” value ([2]; n=12) was 0.56 ± 0.59 points and the “VESSPA SOC (pleasure and sociability) Emax” value ([2]; n=12) was 1.24 ± 1.56 points. For the same molecule, the “VESSPA-ACT (activity and energy) Emax” value ([2]; n=12) was 0.82 ± 0.84 points, the “VESSPA-PS (psychotic symptoms) Emax” value ([2]; n=12) was 0.06 ± 0.11 points and the “VESSPA SOC (pleasure and sociability) Emax” value ([2]; n=12, listed as methylone) was “higher than 1 points”. The “VESSPA ANX (psychosomatic anxiety) AUC0-5/6 h” value ([2]; AUC0–6h, n=12) was 2.51 ± 2.22 points·h, the “VESSPA CP (changes in perception) AUC0-5/6 h” value ([2]; AUC0–6h, n=12) was 0.00 ± 0.00 points·h and the “VESSPA S (sedation) AUC0-5/6 h” value ([2]; AUC0–6h, n=12) was 1.39 ± 1.96 points·h. The “VESSPA SOC (pleasure and sociability) AUC0-5/6 h” value ([2]; AUC0–6h, n=12) was 1.63 ± 2.13 points·h, the “VESSPA-ACT (activity and energy) AUC0-5/6 h” value ([2]; AUC0–6h, n=12) was 1.02 ± 1.08 points·h and the “VESSPA-PS (psychotic symptoms) AUC0-5/6 h” value ([2]; AUC0–6h, n=12) was 0.10 ± 0.24 points·h. The “Substitution for MDMA in drug discrimination” value ([1]; rats) was over 80% and the Tmax in plasma [3] was 2 h.
